Measured values as given in patent US10238661B2, “Fused, spirocyclic heteroaromatic compounds for the treatment of bacterial infections” (priority 2014, dated 2019).
In brackets after ≈: the same amount, converted by molar mass. Several values for one entry are separate records, joined by “and”; a condition that tells them apart may be missing. Equal entries are not always repeated. Where two headings read alike, the source gives them in different places.

What was measured:
[1] = system: Mycoplasma pneumoniae; conditions: Mycoplasma pneumoniae ATCC 29342; CLSI M43-A acceptable QC range; cited from earlier work
[2] = system: Ureaplasma species; conditions: Ureaplasma urealyticum ATCC 33175; CLSI M43-A acceptable QC range; cited from earlier work
[3] = system: Brucella melitensis; assay: microbe, parasite or virus in culture; type: cell-based
[4] = system: Brucella suis; assay: microbe, parasite or virus in culture; type: cell-based
[5] = system: Burkholderia pseudomallei; assay: microbe, parasite or virus in culture; type: cell-based
[6] = system: Yersinia pestis; assay: microbe, parasite or virus in culture; type: cell-based
[7] = system: Francisella tularensis; assay: microbe, parasite or virus in culture; type: cell-based
[8] = system: Mycoplasma pneumoniae; assay: Broth microdilution MIC assay (CLSI M43-A), M. pneumoniae; type: cell-based; conditions: for MIC: read-out: MIC
[9] = system: Ureaplasma species; assay: microbe, parasite or virus in culture; type: cell-based, Ureaplasma urealyticum, Ureaplasma parvum; conditions: for MIC50 / MIC90 / MIC: Ureaplasma; for MIC: ATCC33175
[10] = system: Mycoplasma genitalium; assay: microbe, parasite or virus in culture; type: cell-based; conditions: for MIC: Mycoplasmoides genitalium
[11] = system: Mycoplasma hominis; assay: microbe, parasite or virus in culture; type: cell-based
[12] = system: Burkholderia mallei; assay: microbe, parasite or virus in culture; type: cell-based; conditions: Burkholderia mallei
[13] = system: Bacillus anthracis; assay: microbe, parasite or virus in culture; type: cell-based
[14] = M. pneumoniae M-129 QC Strain ATCC 29342-B7
[15] = M. pneumoniae isolate 54484, macrolide-resistant
[16] = M. pneumoniae isolate 54506, macrolide-resistant

**Q.** For `CC[C@H]1OC(=O)[C@H](C)[C@@H](O[C@H]2C[C@@](C)(OC)[C@@H](O)[C@H](C)O2)[C@H](C)[C@@H](O[C@@H]2O[C@H](C)C[C@H](N(C)C)[C@H]2O)[C@](C)(O)C[C@@H](C)C(=O)[C@H](C)[C@@H](O)[C@]1(C)O` [Erythromycin], which “MIC Limits for Quality Control Strain” value [1] is on record?
**A.** Its value is 0.004 to 0.063 µg/mL.

**Q.** And the “MIC Limits for Quality Control Strain” value [2]?
**A.** The value was 1 to 8 µg/mL.

**Q.** Which results are given for `C[C@@H]1CN2c3c(cc4c(N5C(=O)OC[C@@H]5C)noc4c3F)CC3(C(=O)NC(=O)NC3=O)[C@H]2[C@H](C)O1` [Compound 1, (2R,4S,4aS)-11-fluoro-2,4-dimethyl-8-[(4S)-4-methyl-2-oxo-1,3-oxazolidin-3-yl]-1,2,4,4a-tetrahydro-2′H,6H-spiro[1,4-oxazino[4,3-a][1,2]oxazolo[4,5-g]quinoline-5,5′-pyrimidine]-2′,4′,6′(1′H,3′H)-trione]?
**A.** MIC [3]: 16 µg/mL (≈ 32.8 µM); MIC ([3]; Brucella melitensis): 8 µg/mL (≈ 16.4 µM); MIC [4]: 1 µg/mL (≈ 2.05 µM); MIC Range [4]: 1 to 2 µg/mL; MIC ([4]; Brucella suis): 2 µg/mL (≈ 4.1 µM); MIC50 ([4]; Brucella suis): 1 µg/mL (≈ 2.05 µM); MIC90 ([4]; Brucella suis): 2 µg/mL (≈ 4.1 µM); MIC [5]: 64 µg/mL (≈ 131 µM); MIC90 [5]: >64 µg/mL; MIC ([5]; Burkholderia pseudomallei): 32 µg/mL (≈ 65.6 µM); MIC50 ([5]; Burkholderia pseudomallei): 32 µg/mL (≈ 65.6 µM); MIC90 ([5]; Burkholderia pseudomallei): 64 µg/mL (≈ 131 µM); MIC50 [6]: 4 µg/mL (≈ 8.21 µM); MIC50 ([6]; Yersinia pestis): 2 µg/mL (≈ 4.1 µM); MIC [7]: 8 µg/mL (≈ 16.4 µM); MIC Range [7]: 8 to 16 µg/mL; MIC ([7]; Francisella tularensis): 16 µg/mL (≈ 32.8 µM); MIC50 ([7]; Francisella tularensis): 16 µg/mL (≈ 32.8 µM); MIC90 ([7]; Francisella tularensis): 16 µg/mL (≈ 32.8 µM); MIC90 relative to doxycycline (fold higher) ([8]; M. pneumoniae): 4 fold; MIC [8, 14]: 0.5 µg/mL (≈ 1.03 µM); MIC ([8]; M. pneumoniae isolate 51494): 0.5 µg/mL (≈ 1.03 µM); MIC ([8]; M. pneumoniae isolate 53706): 0.5 µg/mL (≈ 1.03 µM); MIC ([8]; M. pneumoniae isolate 53938): 0.5 µg/mL (≈ 1.03 µM); MIC [8, 15]: 0.5 µg/mL (≈ 1.03 µM); MIC [8, 16]: 0.5 µg/mL (≈ 1.03 µM); MIC ([8]; M. pneumoniae isolate 55246): 1 µg/mL (≈ 2.05 µM); MIC ([8]; M. pneumoniae isolate 55612): 1 µg/mL (≈ 2.05 µM); MIC ([8]; M. pneumoniae isolate 57807): 0.5 µg/mL (≈ 1.03 µM); MIC ([8]; M. pneumoniae isolate 58188): 0.5 µg/mL (≈ 1.03 µM); MIC ([8]; M. pneumoniae isolate 58772): 0.5 µg/mL (≈ 1.03 µM); MIC ([8]; M. pneumoniae isolate 59597): 0.5 µg/mL (≈ 1.03 µM); MIC ([8]; M. pneumoniae isolate 59598): 0.5 µg/mL (≈ 1.03 µM); MIC50 ([8]; M. pneumoniae isolates, n = 12): 0.5 µg/mL (≈ 1.03 µM); MIC90 ([8]; M. pneumoniae isolates, n = 12): 1 µg/mL (≈ 2.05 µM); in vitro potency against macrolide-resistant versus macrolide-susceptible isolates ([8]; two macrolide-resistant M. pneumoniae isolates): maintained in vitro potency; MIC90 potency relative to azithromycin (fold more potent / lower MIC90) [9]: 4 fold; MIC range for isolates containing tetM [9]: 0.5 to 2 µg/mL; difference in MICs, levofloxacin-resistant versus levofloxacin-susceptible isolates [9]: no difference; MIC50 [9]: 0.5 µg/mL (≈ 1.03 µM); MIC90 [9]: 1 µg/mL (≈ 2.05 µM); MIC [9]: 0.5 µg/mL (≈ 1.03 µM); MIC [10]: 0.5 µg/mL (≈ 1.03 µM); MIC ([10]; ATCC33530): 0.5 µg/mL (≈ 1.03 µM); MIC ([10]; ATCC49895): 1 µg/mL (≈ 2.05 µM); MIC ([10]; ATCC49899): 0.5 µg/mL (≈ 1.03 µM); MIC90 relative to levofloxacin (fold greater) [11]: 16 fold; MIC Range [11]: 1 to 8 µg/mL; effect of presence of tetM on MICs [11]: not affected by the presence of tetM; MIC50 ([11]; Metamycoplasma hominis): 2 µg/mL (≈ 4.1 µM); MIC90 ([11]; Metamycoplasma hominis): 4 µg/mL (≈ 8.21 µM); MIC ([11]; Metamycoplasma hominis, read-out: maximum MIC value): 8 µg/mL (≈ 16.4 µM); MIC90 [12]: 32 µg/mL (≈ 65.6 µM); MIC90 [13]: 1 µg/mL (≈ 2.05 µM); MIC Range [13]: 0.12 to 1 µg/mL and 0.12 to 4 µg/mL; MIC50 ([13]; Bacillus anthracis): 0.25 µg/mL (≈ 0.513 µM); MIC90 ([13]; Bacillus anthracis): 0.5 µg/mL (≈ 1.03 µM)

**Q.** With `C[C@H]1c2cccc(O)c2C(=O)C2=C(O)[C@]3(O)C(=O)C(C(N)=O)=C(O)[C@@H](N(C)C)[C@@H]3[C@@H](O)[C@@H]21` [Doxycycline] as the compound, how does the MIC [3] read?
**A.** Its MIC is 0.125 µg/mL (≈ 0.281 µM).

**Q.** What about the MIC ([3]; Brucella melitensis) of the same compound?
**A.** The MIC was 0.25 µg/mL (≈ 0.563 µM).

**Q.** What about the MIC [4] of the same compound?
**A.** Its MIC is 0.125 µg/mL (≈ 0.281 µM).

**Q.** And the MIC ([4]; Brucella suis)?
**A.** The MIC was 0.063 µg/mL (≈ 0.142 µM).

**Q.** What about the MIC [6] of the same compound?
**A.** Its MIC is 1 µg/mL (≈ 2.25 µM).

**Q.** What about the MIC ([6]; Yersinia pestis) of the same compound?
**A.** Its MIC is 0.5 µg/mL (≈ 1.13 µM).

**Q.** And the MIC [8, 14]?
**A.** The MIC was 0.5 µg/mL (≈ 1.13 µM).

**Q.** What about the MIC ([8]; M. pneumoniae isolate 51494) of the same compound?
**A.** The MIC was 0.25 µg/mL (≈ 0.563 µM).

**Q.** What about the MIC ([8]; M. pneumoniae isolate 53706) of the same compound?
**A.** The MIC was 0.25 µg/mL (≈ 0.563 µM).

**Q.** And the MIC ([8]; M. pneumoniae isolate 53938)?
**A.** The MIC was 0.25 µg/mL (≈ 0.563 µM).

**Q.** And the MIC [8, 15]?
**A.** Its MIC is 0.25 µg/mL (≈ 0.563 µM).

**Q.** And the MIC [8, 16]?
**A.** The MIC was 0.25 µg/mL (≈ 0.563 µM).

**Q.** And the MIC ([8]; M. pneumoniae isolate 55246)?
**A.** The MIC was 0.25 µg/mL (≈ 0.563 µM).

**Q.** And the MIC ([8]; M. pneumoniae isolate 55612)?
**A.** Its MIC is 0.25 µg/mL (≈ 0.563 µM).

**Q.** And the MIC ([8]; M. pneumoniae isolate 57807)?
**A.** The MIC was 0.25 µg/mL (≈ 0.563 µM).

**Q.** What about the MIC ([8]; M. pneumoniae isolate 58188) of the same compound?
**A.** The MIC was 0.125 µg/mL (≈ 0.281 µM).

**Q.** What about the MIC ([8]; M. pneumoniae isolate 58772) of the same compound?
**A.** The MIC was 0.5 µg/mL (≈ 1.13 µM).

**Q.** What about the MIC ([8]; M. pneumoniae isolate 59597) of the same compound?
**A.** Its MIC is 0.25 µg/mL (≈ 0.563 µM).

**Q.** And the MIC ([8]; M. pneumoniae isolate 59598)?
**A.** Its MIC is 0.25 µg/mL (≈ 0.563 µM).

**Q.** And the MIC50 ([8]; M. pneumoniae isolates, n = 12)?
**A.** The MIC50 was 0.25 µg/mL (≈ 0.563 µM).

**Q.** And the MIC90 ([8]; M. pneumoniae isolates, n = 12)?
**A.** The MIC90 was 0.25 µg/mL (≈ 0.563 µM).

**Q.** And the “MIC Range” value ([8]; M. pneumoniae isolates, n = 12)?
**A.** Its value is 0.125 to 0.5 µg/mL.

**Q.** And the “MIC90 activity relative to Compound 1 (fold more active)” value [9]?
**A.** Its value is 8 fold.

**Q.** And the “MIC Range” value [9]?
**A.** The value was 0.016 to 8 µg/mL.

**Q.** What about the “MIC range for isolates containing tetM” value [9] of the same compound?
**A.** Its value is 4 to 8 µg/mL.

**Q.** And the MIC50 [9]?
**A.** The MIC50 was 0.125 µg/mL (≈ 0.281 µM).

**Q.** And the MIC90 [9]?
**A.** Its MIC90 is 8 µg/mL (≈ 18 µM).

**Q.** And the MIC [9]?
**A.** The MIC was 8 µg/mL (≈ 18 µM).

**Q.** What about the MIC90 ([9]; read-out: MIC90 for doxycycline-susceptible organisms) of the same compound?
**A.** Its MIC90 is 0.125 µg/mL (≈ 0.281 µM).

**Q.** What about the “MIC Range” value [10] of the same compound?
**A.** Its value is 0.25 to 1 µg/mL.

**Q.** And the MIC [10]?
**A.** The MIC was 1 µg/mL (≈ 2.25 µM).

**Q.** What about the MIC ([10]; ATCC33530) of the same compound?
**A.** Its MIC is 0.25 µg/mL (≈ 0.563 µM).

**Q.** And the MIC ([10]; ATCC49895)?
**A.** Its MIC is 0.25 µg/mL (≈ 0.563 µM).

**Q.** And the MIC ([10]; ATCC49899)?
**A.** Its MIC is 0.5 µg/mL (≈ 1.13 µM).

**Q.** What about the “MIC Range” value [11] of the same compound?
**A.** Its value is 0.016 to 4 µg/mL.

**Q.** And the “MICs for isolates with tetM” value [11]?
**A.** The value was 4 µg/mL.

**Q.** And the “MICs for isolates without tetM” value [11]?
**A.** Its value is 0.016 to 0.063 µg/mL.

**Q.** And the MIC50 ([11]; Metamycoplasma hominis)?
**A.** Its MIC50 is 0.032 µg/mL (≈ 0.072 µM).

**Q.** And the MIC90 ([11]; Metamycoplasma hominis)?
**A.** The MIC90 was 4 µg/mL (≈ 9 µM).

**Q.** And the MIC ([13]; Bacillus anthracis)?
**A.** The MIC was ≤ 0.031 µg/mL.

**Q.** Which “MICs for isolates with tetM” value [11] does the source give for `CN(C)[C@@H]1C(O)=C(C(N)=O)C(=O)[C@@]2(O)C(O)=C3C(=O)c4c(O)cccc4[C@@](C)(O)[C@H]3C[C@@H]12` [Tetracycline] here?
**A.** The value was 32 µg/mL.
